{"source": "patent US12358948B2", "about": "“Neurotensinergic agonists and methods of using same preventing or treating pain” (priority 2019, dated 2025)", "key": {"[1]": {"test_system": "Sprague-Dawley rats", "experiment": "Tail-flick test (acute thermal pain), intrathecal injection", "type": "in vivo, rat", "settings": "for ED50, tail-flick test: from % MPE at 10 min post-injection, rat; for tail-flick latency time compared to saline injection: i.t. 10 to 150 μg/kg (compound 34) or 3 to 61 nmol/kg (compound 67); for % MPE: 10 min post-injection", "description": "Rats were housed two per cage on Aspen shavings in a quiet room and kept on a 12 h light/dark cycle and allowed ad libitum access to food and water. The experimental procedures in this study were approved by the Animal Care Committee of Université de Sherbrooke and were in accordance with policies and directives of the Canadian Council on Animal Care.\nTail-flick test: The tail flick test was used as outcome measures heat-induced pain in animals and as indicators of a compound's analgesic efficacy.\nAcute pain was assessed using the Tail flick test (Tail Flick Analgesia meterV2.00, Colombus Instruments, Columbus, Ohio, USA). Tail flick test measures sensitivity to a high-intensity light beam focused on the rat tail. The tail flick apparatus was set at a light intensity of 6 and a cutoff of 10 seconds. The latency to flick the tail out of the path of the light beam corresponds to the measure of pain sensitivity or analgesia.\nBefore testing, animals were individually acclimatized to manipulations and behavioral apparatus 5 min/day for three consecutive days. On the test day, latencies baseline measures were taken before drug injection to provide a mean baseline. The compounds were diluted in 0.9% saline at the desired dose. The effects of the compound or saline on thermal nociception were assessed every 10 min for up to 60 min following i.t. administration.\nMoreover, tail flick latencies were converted into the percent maximal possible effect (% MPE) at the time of maximal peak of analgesia. % MPE were calculated according to the following formula: % MPE=[(Test latency)−(Saline latency)]/[(Cutoff)−(Saline latency)]×100. Data are expressed as mean±SEM of 5-8 animals for each dose.\nThen, ED50 values were determined using the dose-response stimulation log(agonist) vs response (four parameters).\nData are expressed as mean±standard errors of the mean (SEM). All graphs and statistical analysis were performed using GraphPad Prism™ 7 (GraphPad software, La Jolla, CA, USA). […] A two-way ANOVA followed by Tukey's multiple comparisons test was used to determine the significant differences in changes in body temperature between different concentrations of compounds and saline (FIG. 9). The % MPE for the tail-flick test and the areas under the curve for the formalin test were analyzed using a one-way ANOVA followed by a Dunnett's multiple comparisons test to compare different concentrations of compounds and saline treatment (FIGS. 2B, 4B, 7A-B and 8B-D). […] Nonlinear regression using three parameters was performed for % of ileum relaxation and IC50 value was obtained from the resulting dose-response curve (FIG. 11). A difference in response was considered significant with p-values *p<0.05, **p<0.01, ***p<0.001 and **p<0.0001."}, "[2]": {"experiment": "Blood pressure measurements after intravenous injection", "protocol": "Mean, systolic and diastolic arterial blood pressure and a heart rate were measured through a catheter (PE 50 filled with heparinized saline) inserted in the right carotid artery and connected to a Micro-Med transducer (model TDX-300, USA) linked to a blood pressure Micro-Med analyzer (model BPA-100c). […] Blood pressure was recorded each second for up to 1000 seconds following intravenous injection. […] Data represents the mean±SEM of 4-5 rats for each condition."}, "[3]": {"test_system": "Sprague-Dawley rats", "experiment": "Formalin test (tonic pain model), intrathecal injection", "type": "in vivo, rat", "description": "Experiments were performed with adults male Sprague-Dawley rats, weighing 225-300 g (Charles River laboratories, St Constant, Canada). Rats were housed two per cage on Aspen shavings in a quiet room and kept on a 12 h light/dark cycle and allowed ad libitum access to food and water. The experimental procedures in this study were approved by the Animal Care Committee of Université de Sherbrooke and were in accordance with policies and directives of the Canadian Council on Animal Care.\nRats were lightly anesthetized with isoflurane/oxygen (Baxter corporation, Mississauga, ON, Canada; 2 L/min) flow and injected intrathecally at the L5-L6 intervertebral space with concentrations ranging from 10 to 150 μg/kg of compound 34, 30 μg/kg of PD149163 or 61 nmol/kg of compounds 60, 67, 91 and 116 diluted in 0.9% saline or 0.9% saline alone.\nFormalin test: The analgesic effect of compound 34 was assessed using the formalin test as a model of persistent pain. Before testing, animals were acclimatized to manipulations and to plexiglass chambers 30 min/day for three consecutive days. On test day, 5 minutes after intrathecal injection of compounds at increasing doses ranging from 30 to 150 μg/kg (FIGS. 7A-B) or 3 to 60 μg/kg (FIGS. 8A-D), the rats received a 50 μl of diluted 1.85% formaldehyde (i.e. 5% formalin; Bioshop, Burlington, Ontario) into the plantar surface of the right hind paw. […] The intraplantar injection of formalin produced the biphasic nociceptive response typical of this tonic pain model (Tjolsen et al., 1992). […] Nociceptive behavior was assessed using a weighted score as described previously (Dubuisson and Dennis 1977; Codere, 1993). […] The weighted average pain intensity score ranging from 0 to 3 was then calculated by multiplying the time spent in each category by the category weight, summing these products, and dividing by the total time in a given time interval. The pain score was thus calculated from the following formula (1T1+2T2+3T3)/180 where T1, T2, and T3 are the durations (in seconds) spent in behavioral categories 1, 2, or 3, respectively, during each 180 second block. The Area Under the Curve (AUC) was calculated during all the duration of the test (0-60 min). […]\nData are expressed as mean±standard errors of the mean (SEM). […] The % MPE for the tail-flick test and the areas under the curve for the formalin test were analyzed using a one-way ANOVA followed by a Dunnett's multiple comparisons test to compare different concentrations of compounds and saline treatment (FIGS. 2B, 4B, 7A-B and 8B-D). […]"}}, "note": "Where “and” joins values, the source holds several entries; their conditions need not be identical. Identical values can stand only once. Where a SMILES comes first, the peptide text is derived from it. Bridges are numbered along the chain shown (N, C = ends). [ ]: non-standard residue; d: D form. Ala(cPent) = N[C@@H](CC1CCCC1)C(=O)O; AllylGly = C=CC[C@H](N)C(=O)O", "data": [{"smiles": "NCCCC[C@@H]1NC(=O)[C@H](CCCCN)NC(=O)[C@@H](N)CC=CC[C@@H](C(=O)N[C@@H](Cc2ccc(O)cc2)C(=O)N[C@@H](CC2CCCC2)C(=O)O)NC1=O", "note": "[compound 67, c[G(All)KKG(All)]YA(cyclopentyl)] (H-[AllylGly]KK[AllylGly]Y[Ala(cPent)]-OH; staple 1-4)", "values": [{"measurement": "latency of the tail-flick reflex compared to baseline", "setting": "[1]; 61 nmol/kg i.t.", "result": "sustainably increased latency"}, {"measurement": "tail-flick latency at low doses", "setting": "[1]; doses inferior to 3 nmol/kg i.t. (data not shown)", "result": "no apparent increase in latency"}, {"measurement": "antinociceptive effect compared with the other tested compounds", "setting": "[1]; equimolar doses (61 nmol/kg i.t.)", "result": "highest antinociceptive effect"}, {"measurement": "ED50, tail-flick test", "setting": "[1]; i.t.", "result": 8.14, "unit": "nmol/kg"}, {"measurement": "tail-flick latency time compared to saline injection", "setting": "[1]", "result": "significantly increased"}, {"measurement": "MPE plateau at the tested doses", "setting": "[1]; tail-flick, 3 to 61 nmol/kg i.t.", "result": "did not reach a plateau"}, {"measurement": "% MPE", "setting": "[1]; tail-flick, highest dose i.t.", "result": "at least 91%"}, {"measurement": "Hypotension (i.v.)", "setting": "[2]; 1 mg/kg i.v.", "result": "no significant hypotension"}, {"measurement": "ED50, formalin test", "setting": "[3]; AUC of pain score, acute and inflammatory phases combined, i.t.", "result": 30, "unit": "nmol/kg"}, {"measurement": "pain score", "setting": "[3]; all tested doses (from 10 nmol/kg) i.t.", "result": "significantly decreased"}]}, {"smiles": "CC(C)C[C@H](NC(=O)[C@H](Cc1ccc(O)cc1)NC(=O)[C@@H]1CC=CC[C@H](N)C(=O)N[C@@H](CCCCN)C(=O)N[C@@H](CCCCN)C(=O)N1)C(=O)O", "note": "[compound 34, c[G(All)KKG(All)]YL] (H-[AllylGly]KK[AllylGly]YL-OH; staple 1-4)", "values": [{"measurement": "tail-flick latency at the lowest dose", "setting": "[1]; 10 μg/kg i.t. (data not shown)", "result": "no apparent increase in latency"}, {"measurement": "ED50, tail-flick test", "setting": "[1]; i.t.", "result": "48.52 μg/kg and 61 nmol/kg"}, {"measurement": "tail-flick latency time compared to saline injection", "setting": "[1]", "result": "significantly increased"}, {"measurement": "% MPE", "setting": "[1]; tail-flick, two higher doses i.t.", "result": "at least 98%"}, {"measurement": "dose at which analgesic effect / MPE reached a plateau", "setting": "[1]; tail-flick, i.t.", "result": "around 90 μg/kg"}, {"measurement": "Hypotension (i.v.)", "setting": "[2]; 0.01, 0.1, 1 mg/kg i.v.", "result": "no significant hypotension"}, {"measurement": "time spent in lifting", "setting": "[3]; acute phase, from 60 μg/kg i.t.", "result": "significantly decreased"}, {"measurement": "time spent in lifting", "setting": "[3]; inflammatory phase, from 90 μg/kg i.t.", "result": "significantly decreased"}]}]}
